Each molecule was assayed against human PDE10A (Homo sapiens (Human), UniProt Q9Y233) (assay: human PDE10A full length Scintillation Proximity Assay (SPA)). Conditions: 50 nM cGMP and 50 nM [3H]-cGMP, 20 minutes at room temperature, read-out: PDE10A inhibition IC50.
human PDE10A, sequence (Q9Y233 other isoform, or with tags, fused parts or gaps): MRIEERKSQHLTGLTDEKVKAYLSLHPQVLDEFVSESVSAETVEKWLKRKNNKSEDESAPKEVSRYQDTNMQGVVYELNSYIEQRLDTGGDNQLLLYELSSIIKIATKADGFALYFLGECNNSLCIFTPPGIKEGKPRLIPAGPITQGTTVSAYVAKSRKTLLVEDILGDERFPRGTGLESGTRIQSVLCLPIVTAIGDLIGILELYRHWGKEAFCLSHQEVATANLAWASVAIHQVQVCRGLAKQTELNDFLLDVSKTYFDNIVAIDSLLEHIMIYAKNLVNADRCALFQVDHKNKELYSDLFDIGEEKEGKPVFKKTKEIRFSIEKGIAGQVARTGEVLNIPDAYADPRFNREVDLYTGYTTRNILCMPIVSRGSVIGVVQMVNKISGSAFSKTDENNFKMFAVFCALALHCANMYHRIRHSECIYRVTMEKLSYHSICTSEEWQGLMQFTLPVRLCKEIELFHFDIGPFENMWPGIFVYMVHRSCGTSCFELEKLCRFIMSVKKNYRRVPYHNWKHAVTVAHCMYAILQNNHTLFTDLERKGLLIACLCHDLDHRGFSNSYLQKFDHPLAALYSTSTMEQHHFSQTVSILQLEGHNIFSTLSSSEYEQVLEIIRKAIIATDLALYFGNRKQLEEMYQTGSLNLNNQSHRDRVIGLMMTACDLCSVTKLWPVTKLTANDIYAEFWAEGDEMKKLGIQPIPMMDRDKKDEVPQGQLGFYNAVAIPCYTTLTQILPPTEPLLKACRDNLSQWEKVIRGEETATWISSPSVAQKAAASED
Type: biochemical
Protocol: The following test was carried out in order to determine the activity of the compounds of the present invention. PDE10 activity of the compounds of the present invention was determined using a Scintillation Proximity Assay (SPA)-based method similar to the one previously described (Fawcett, L. et al., Proc Natl Acad Sci USA (2000) 97(7):3702-3707).
The human PDE10A full length assay was performed in 96-well micro titer plates. The reaction mixture of 50 μl contained 20 mM HEPES pH=7.5/10 mM MgCl2/0.05 mg/ml BSA (Sigma cat. # A-7906), 50 nM cGMP (Sigma, cat. # G6129) and 50 nM [^3H]-cGMP (GE Healthcare, cat. # TRK392 S.A. 13.2Ci/mmol), 3.75 ng/well PDE10A enzyme (Enzo Life Science, Lausen, Switzerland cat # SE-534) with or without a specific test compound. A range of concentrations of the potential inhibitor was used to generate data for calculating the concentration of inhibitor resulting in 50% of the effect (e.g. IC50, the concentration of the competitor inhibiting PDE10A activity by 50%). Non-specific activity was tested without the enzyme. The reaction was initiated by the addition of the substrate solution (cGMP and [^3H]-cGMP) and allowed to progress for 20 minutes at room temperature. The reaction was terminated by adding 25 μA of YSi-SPA scintillation beads (GE Healthcare, cat. # RPNQ0150) in 18 mM zinc sulphate solution (stop reagent). After 1 h under shaking, the plate was centrifuged one minute at 170 g to allow beads to settle. Afterwards, radioactive counts were measured on a Perkin Elmer TopCount Scintillation plate reader.
`N#CCCn1nc(-c2ccccn2)cc1NC(=O)c1nc(C2CC2)ccc1Nc1cncnc1` [Example 33, 6-Cyclopropyl-3-(pyrimidin-5-ylamino)-pyridine-2-carboxylic acid [2-(2-cyano-ethyl)-5-pyridin-2-yl-2H-pyrazol-3-yl]-amide] showed an IC50 of 170 nM. For `CCc1ccc(Nc2cncnc2)c(C(=O)Nc2cc(-c3ccccn3)nn2CCO)n1` [Example 34, 6-Ethyl-3-(pyrimidin-5-ylamino)-pyridine-2-carboxylic acid [2-(2-hydroxy-ethyl)-5-pyridin-2-yl-2H-pyrazol-3-yl]-amide], the IC50 was 1 nM. With `Cc1cnc(Nc2cncnc2)c(C(=O)Nc2cc(-c3ccccn3)nn2C)n1` [Example 35, 6-Methyl-3-(pyrimidin-5-ylamino)-pyrazine-2-carboxylic acid (2-methyl-5-pyridin-2-yl-2H-pyrazol-3-yl)-amide] the IC50 was 21 nM. With `Cc1cnc(Nc2cncnc2)c(C(=O)Nc2cc(-c3ccccn3)nn2CCO)n1` [Example 36, 6-Methyl-3-(pyrimidin-5-ylamino)-pyrazine-2-carboxylic acid [2-(2-hydroxy-ethyl)-5-pyridin-2-yl-2H-pyrazol-3-yl]-amide] the IC50 was 4 nM. Work on `Cn1cncc1Cn1nc(-c2ccccn2)cc1NC(=O)c1nc(C2CC2)ccc1Nc1cncnc1` [Example 37, 6-Cyclopropyl-3-(pyrimidin-5-ylamino)-pyridine-2-carboxylic acid [2-(3-methyl-3H-imidazol-4-ylmethyl)-5-pyridin-2-yl-2H-pyrazol-3-yl]-amide] yielded an IC50 of 2 nM. With `COCCn1nc(-c2ccccn2)cc1NC(=O)c1nc(C2CC2)ccc1Nc1cncnc1` [Example 38, 6-Cyclopropyl-3-(pyrimidin-5-ylamino)-pyridine-2-carboxylic acid [2-(2-methoxy-ethyl)-5-pyridin-2-yl-2H-pyrazol-3-yl]-amide] the IC50 was less than 1 nM. Work on `Cn1nc(-c2ccc(Cl)cn2)cc1NC(=O)c1nc(C2CC2)ccc1Nc1cncnc1` [Example 39, 6-Cyclopropyl-3-(pyrimidin-5-ylamino)-pyridine-2-carboxylic acid [5-(5-chloro-pyridin-2-yl)-2-methyl-2H-pyrazol-3-yl]-amide] yielded an IC50 of 3 nM. Molecule `Cn1nc(-c2ccc3ccccc3n2)cc1NC(=O)c1nc(C2CC2)ccc1Nc1cncnc1` [Example 40, 6-Cyclopropyl-3-(pyrimidin-5-ylamino)-pyridine-2-carboxylic acid (2-methyl-5-quinolin-2-yl-2H-pyrazol-3-yl)-amide] has an IC50 of less than 1 nM. `Cn1nc(-c2cccc(Cl)n2)cc1NC(=O)c1nc(C2CC2)ccc1Nc1cncnc1` [Example 41, 6-Cyclopropyl-3-(pyrimidin-5-ylamino)-pyridine-2-carboxylic acid [5-(6-chloro-pyridin-2-yl)-2-methyl-2H-pyrazol-3-yl]-amide] showed an IC50 of 3 nM. For `CN(C)CCn1nc(NC(=O)c2nc(C3CC3)ccc2Nc2cncnc2)cc1-c1ccccn1` [Example 42, 6-Cyclopropyl-3-(pyrimidin-5-ylamino)-pyridine-2-carboxylic acid [1-(2-dimethylamino-ethyl)-5-pyridin-2-yl-1H-pyrazol-3-yl]-amide], the IC50 was 24 nM. `CN1CCC(n2nc(-c3ccccn3)cc2NC(=O)c2nc(C3CC3)ccc2Nc2cncnc2)CC1` [Example 43, 6-Cyclopropyl-3-(pyrimidin-5-ylamino)-pyridine-2-carboxylic acid [2-(1-methyl-piperidin-4-yl)-5-pyridin-2-yl-2H-pyrazol-3-yl]-amide] gave an IC50 of 4 nM. Work on `COc1ccc(-c2nnc(NC(=O)c3nc(C4CC4)ccc3Nc3cncnc3)s2)cc1` [Example 44, 6-Cyclopropyl-3-(pyrimidin-5-ylamino)-pyridine-2-carboxylic acid [5-(4-methoxy-phenyl)-[1,3,4]thiadiazol-2-yl]-amide] yielded an IC50 of 1880 nM. Work on `O=C(Nc1nnc(-c2ccc(F)cc2)s1)c1nc(C2CC2)ccc1Nc1cncnc1` [Example 45, 6-Cyclopropyl-3-(pyrimidin-5-ylamino)-pyridine-2-carboxylic acid [5-(4-fluoro-phenyl)-[1,3,4]thiadiazol-2-yl]-amide] yielded an IC50 of 6380 nM. Molecule `O=C(Nc1cc(-c2ccccc2)no1)c1nc(C2CC2)ccc1Nc1cncnc1` [Example 46, 6-Cyclopropyl-3-(pyrimidin-5-ylamino)-pyridine-2-carboxylic acid (3-phenyl-isoxazol-5-yl)-amide] has an IC50 of 612 nM. `O=C(Nc1cc(-c2ccccc2)on1)c1nc(C2CC2)ccc1Nc1cncnc1` [Example 47, 6-Cyclopropyl-3-(pyrimidin-5-ylamino)-pyridine-2-carboxylic acid (5-phenyl-isoxazol-3-yl)-amide] showed an IC50 of 1450 nM. For `O=C(Nc1nnc(-c2ccccc2)s1)c1nc(C2CC2)ccc1Nc1cncnc1` [Example 48, 6-Cyclopropyl-3-(pyrimidin-5-ylamino)-pyridine-2-carboxylic acid (5-phenyl-[1,3,4]thiadiazol-2-yl)-amide], the IC50 was 435 nM. `O=C(Nc1nnc(-c2cnccn2)s1)c1nc(C2CC2)ccc1Nc1cncnc1` [Example 49, 6-Cyclopropyl-3-(pyrimidin-5-ylamino)-pyridine-2-carboxylic acid (5-pyrazin-2-yl-[1,3,4]thiadiazol-2-yl)-amide] showed an IC50 of 744 nM. `O=C(Nc1ccc(-c2ccccn2)s1)c1nc(C2CC2)ccc1Nc1cncnc1` [Example 50, 6-Cyclopropyl-3-(pyrimidin-5-ylamino)-pyridine-2-carboxylic acid (5-pyridin-2-yl-thiophen-2-yl)-amide] showed an IC50 of 1 nM. Molecule `O=C(Nc1cc(-c2ccccn2)no1)c1nc(C2CC2)ccc1Nc1cncnc1` [Example 51, 6-Cyclopropyl-3-(pyrimidin-5-ylamino)-pyridine-2-carboxylic acid (3-pyridin-2-yl-isoxazol-5-yl)-amide] has an IC50 of 4 nM. `O=C(Nc1cn(-c2ccccn2)cn1)c1nc(C2CC2)ccc1Nc1cncnc1` [Example 52, 6-Cyclopropyl-3-(pyrimidin-5-ylamino)-pyridine-2-carboxylic acid (1-pyridin-2-yl-1H-imidazol-4-yl)-amide] showed an IC50 of 33 nM. Molecule `CC(C)c1ncc(Nc2cncnc2)c(C(=O)Nc2cc(-c3ccccn3)nn2C)n1` [Example 53, 2-Isopropyl-5-(pyrimidin-5-ylamino)-pyrimidine-4-carboxylic acid (2-methyl-5-pyridin-2-yl-2H-pyrazol-3-yl)-amide] has an IC50 of 20 nM. Molecule `Cn1nc(-c2ccccn2)cc1NC(=O)c1nc(C2CC2)ncc1Nc1cncnc1` [Example 54, 2-Cyclopropyl-5-(pyrimidin-5-ylamino)-pyrimidine-4-carboxylic acid (2-methyl-5-pyridin-2-yl-2H-pyrazol-3-yl)-amide] has an IC50 of 87 nM. With `Cn1nc(-c2ccccn2)cc1NC(=O)c1nc(C(C)(C)C)ncc1Nc1cncnc1` [Example 55, 2-tert-Butyl-5-(pyrimidin-5-ylamino)-pyrimidine-4-carboxylic acid (2-methyl-5-pyridin-2-yl-2H-pyrazol-3-yl)-amide] the IC50 was 4 nM. For `O=C(Nc1cc(-c2ccc(Cl)cc2)no1)c1nc(C2CC2)ccc1Nc1cncnc1` [Example 56, 6-Cyclopropyl-3-(pyrimidin-5-ylamino)-pyridine-2-carboxylic acid [3-(4-chloro-phenyl)-isoxazol-5-yl]-amide], the IC50 was 1450 nM. `O=C(Nc1cc(-c2ccc(Br)cc2)no1)c1nc(C2CC2)ccc1Nc1cncnc1` [Example 57, 6-Cyclopropyl-3-(pyrimidin-5-ylamino)-pyridine-2-carboxylic acid [3-(4-bromo-phenyl)-isoxazol-5-yl]-amide] showed an IC50 of 781 nM. With `O=C(Nc1cc(-c2ccc(F)cc2)no1)c1nc(C2CC2)ccc1Nc1cncnc1` [Example 58, 6-Cyclopropyl-3-(pyrimidin-5-ylamino)-pyridine-2-carboxylic acid [3-(4-fluoro-phenyl)-isoxazol-5-yl]-amide] the IC50 was 2450 nM. In the case of `COCc1ccc(Nc2cncnc2)c(C(=O)Nc2cc(-c3ccccn3)nn2C)n1` [Example 59, 6-Methoxymethyl-3-(pyrimidin-5-ylamino)-pyridine-2-carboxylic acid (2-methyl-5-pyridin-2-yl-2H-pyrazol-3-yl)-amide], the IC50 is reported as 7 nM. `Cn1nc(-c2ccccn2)cc1NC(=O)c1nc(C2CCCCC2)ncc1Nc1cncnc1` [Example 60, 2-Cyclohexyl-5-(pyrimidin-5-ylamino)-pyrimidine-4-carboxylic acid (2-methyl-5-pyridin-2-yl-2H-pyrazol-3-yl)-amide] showed an IC50 of 6 nM. With `CC(C)Cc1ncc(Nc2cncnc2)c(C(=O)Nc2cc(-c3ccccn3)nn2C)n1` [Example 61, 2-Isobutyl-5-(pyrimidin-5-ylamino)-pyrimidine-4-carboxylic acid (2-methyl-5-pyridin-2-yl-2H-pyrazol-3-yl)-amide] the IC50 was 28 nM. In the case of `O=C(Nc1cnc(-c2ccccn2)s1)c1nc(C2CC2)ccc1Nc1cncnc1` [Example 62, 6-Cyclopropyl-3-(pyrimidin-5-ylamino)-pyridine-2-carboxylic acid (2-pyridin-2-yl-thiazol-5-yl)-amide], the IC50 is reported as 2 nM. In the case of `Cn1nc(NC(=O)c2nc(C3CC3)ccc2Nc2cncnc2)cc1-c1ccccn1` [Example 63, 6-Cyclopropyl-3-(pyrimidin-5-ylamino)-pyridine-2-carboxylic acid (1-methyl-5-pyridin-2-yl-1H-pyrazol-3-yl)-amide], the IC50 is reported as 327 nM.

From patent US8470820B2, “Nitrogen-containing heteroaryl derivatives” (Hoffman-La Roche Inc., priority 2010, dated 2013)
